# Reference: the supplement of paper PMC10326909
# Assay: ESI positive response factor (isotope-corrected peak area per molar concentration) in SFC/ESI/HRMS (area units per M); higher = higher ionization efficiency
# 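Further: standards in acetonitrile/water run in triplicate on a zwitterionic HILIC column, CO2–methanol gradient containing 20 mmol/L ammonium acetate, postcolumn makeup flow, Orbitrap full-scan detection.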
SMILES,ESI positive response factor (0.0122 µM),ESI positive response factor (0.0244 µM),ESI positive response factor (0.061 µM),ESI positive response factor (0.122 µM),ESI positive response factor (0.244 µM),ESI positive response factor (0.035 µM),ESI positive response factor (0.0875 µM),ESI positive response factor (0.35 µM),also measured
CC1(C)CCC(Cc2ccc(Cl)cc2)C1(O)Cn1cncn1 (stereo not drawn) [Metconazol],3.22e+17,3.52e+17,3.16e+17,,,,,,
CN(C)C(=N)N=C(N)N [Metformin],,4.62e+16,9.71e+16,9.59e+16,1.01e+17,,,,
CC(=O)C1=C(C)C2CC3(C1)C(C)CCC3C2(C)C (stereo not drawn) [Methyl cedryl ketone],,,,1.43e+16,1.56e+16,,,,ESI positive response factor (0.61 µM): 1.43e+16; ESI positive response factor (1.22 µM): 1.44e+16
C[N+]1(C)[C@H]2CC(OC(=O)C(CO)c3ccccc3)C[C@H]1[C@H]1O[C@H]12 (stereo partly drawn) [Methyl scopolamine],,,,,,8.31e+17,7.49e+17,,ESI positive response factor (0.0175 µM): 6.75e+17
Cn1sccc1=O [Methylisothiazolinone],,,,,,,,,ESI positive response factor (0.61 µM): 9.58e+14; ESI positive response factor (1.22 µM): 1.18e+15
CON(C)C(=O)Nc1ccc(Br)cc1 [Metobromuron],2.18e+17,2.29e+17,2.07e+17,1.95e+17,,,,,
CCc1cccc(C)c1N(C(=O)CCl)C(C)COC (stereo not drawn) [Metolachlor],4.41e+17,5.34e+17,5.13e+17,,,,,,
CSc1nnc(C(C)(C)C)c(=O)n1N [Metribuzin],2.83e+17,2.15e+17,1.69e+17,1.54e+17,1.52e+17,,,,
OCCN1C[C@H](O)[C@@H](O)[C@H](O)[C@H]1CO [Miglitol],,,,,,5.69e+15,1e+16,1.34e+16,ESI positive response factor (0.175 µM): 1.1e+16; ESI positive response factor (0.875 µM): 1.42e+16; ESI positive response factor (1.75 µM): 1.46e+16
N=c1nc(N2CCCCC2)cc(N)n1O [Minoxidil],1.59e+17,1.78e+17,1.77e+17,1.69e+17,1.72e+17,,,,
CCSC(=O)N1CCCCCC1 [Molinate],,,1.56e+16,1.94e+16,2e+16,,,,ESI positive response factor (0.61 µM): 1.59e+16; ESI positive response factor (1.22 µM): 1.93e+16
CN(C)C(=O)Nc1ccc(Cl)cc1 [Monuron],2.43e+16,2.85e+16,3.31e+16,3.07e+16,3.26e+16,,,,
N=C(N=C(N)N)N1CCOCC1 [Moroxydine],1.51e+17,1.7e+17,1.94e+17,1.92e+17,1.97e+17,,,,
"CC(=O)NCCNC(C)=O [N,N'-Ethylenebisacetamide]",,,,,,4.39e+16,4.04e+16,3.89e+16,ESI positive response factor (0.175 µM): 3.9e+16
"O=C1NCCCN1 [N,N?-Trimethyleneurea]",2.53e+16,3.89e+16,3.96e+16,,,,,,
CC(=O)NCCCCC(N)C(=O)O [N?-Acetyl-L-lysine],,,,,,,,8.93e+15,ESI positive response factor (0.875 µM): 9.29e+15; ESI positive response factor (1.75 µM): 9.24e+15
COc1ccc2cc(C(C)C(=O)O)ccc2c1 (stereo not drawn) [Naproxen],,,,,,7.47e+15,7.04e+15,6.96e+15,ESI positive response factor (0.175 µM): 6.98e+15
CNC(=O)CSP(=O)(OC)OC [Omethoate],,,,,,3.37e+16,3.65e+16,3.93e+16,ESI positive response factor (0.0175 µM): 2.18e+16; ESI positive response factor (0.175 µM): 3.18e+16
COCC(=O)N(c1c(C)cccc1C)N1CCOC1=O [Oxadixyl],,,,,,1.43e+17,1.57e+17,1.48e+17,ESI positive response factor (0.0175 µM): 1.33e+17; ESI positive response factor (0.175 µM): 1.23e+17
COc1ccc(C(=O)c2ccccc2)c(O)c1 [Oxybenzone],,,,,,1.88e+17,1.67e+17,,ESI positive response factor (0.0175 µM): 1.73e+17
O=c1nc2[nH][nH]cc-2c(=O)[nH]1 [Oxypurinol],,,,,,,,,ESI positive response factor (0.875 µM): 5.5e+14; ESI positive response factor (1.75 µM): 4.78e+14
CC(C)(CO)[C@@H](O)C(=O)NCCCO [Panthenol],5.93e+16,6.23e+16,6.32e+16,6.16e+16,6.31e+16,,,,
NC(N)=NC(N)=NCCc1ccccc1 [Phenformin],,,,,,3.42e+17,3.34e+17,3.4e+17,ESI positive response factor (0.0175 µM): 2.9e+17; ESI positive response factor (0.175 µM): 3.21e+17
